Test: gradient 5% acetonitrile 3 min, to 50% in 2 min, to 85% in 15 min, held 3 min, 100 µL/min
Details: column: Zorbax Extend-C18 2.1 x 50 mm; eluents: water / acetonitrile, 0.1% formic acid
How it was run: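 Retention times come from adduct peaks that were picked computationally and then checked by hand. The standards, pure and pooled in mixtures of ~100 molecules, were run on a Zorbax Extend-C18 column (2.1 × 50 mm, 1.8 μm) at 100 μL/min with water and acetonitrile, each with 0.1% formic acid. Detection was by quadrupole time-of-flight mass spectrometry in positive and negative ionization mode, with a dead volume of 40 μL and a dwell volume of 900 μL.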

Compound | RP-LC retention time [s]
COc1ccc(CNC(=O)C2CC(=O)N(c3ccc4c(c3)CCN4C(C)=O)C2)cc1 (stereo unspecified) | 664
CCn1nnc2cc(-c3noc(C4CC(=O)N(c5ccc(C)c(C)c5)C4)n3)ccc21 (stereo unspecified) | 953
Cc1ccc(S(=O)(=O)N2CCCC(Cn3c(C4CC4)nc4cccnc43)C2)c(C)c1 (stereo unspecified) | 832
O=C(NCc1csc(-c2cccs2)n1)C1CCN(S(=O)(=O)c2ccc(F)cc2)CC1 | 892
Cc1ccc(Sc2nccnc2N2CCC(C(=O)N3CCN(c4ccc(F)cc4)CC3)CC2)cc1 | 1200
O=C(N[C@H]1C[C@@H]2C[C@H]1CN2S(=O)(=O)c1ccc2c(c1)OCCO2)c1ccccc1 | 803
Cc1noc(C2(NC(=O)c3ccc4c(c3)OCO4)CCCCC2)n1 | 758
CCCNC(=O)CC1CCN(C(=O)c2[nH]c(C)cc2C)CC1 | 661
CCn1nc(C)c(CCNC(=O)c2ccc3c(c2)N(C)C(=O)C2CCCCN32)c1C (stereo unspecified) | 661
CN1c2ccc(Cl)cc2C(=O)NC12CCN(C(=O)c1ccc3c(c1)OCO3)CC2 | 769
COc1cccc(CNC(=O)C2CCN(c3cc(N4CCSCC4)ncn3)CC2)c1 | 656
CC(=O)NCc1ccc(-c2noc(-c3ccc(F)c(Cl)c3)n2)s1 | 955
CCCNC(=O)c1c(C)sc2ccn(Cc3ccc(F)cc3)c(=O)c12 | 863
Cc1ccn2cc(-c3ccc(NC(=O)c4ccc(Br)cc4)cc3)nc2n1 | 698
Cc1ccc(F)cc1NS(=O)(=O)c1cc(-c2[nH]ncc2C(=O)N2CCCC2)oc1C | 739
COc1cccc(NC(=O)C2CCCN(S(=O)(=O)c3c[nH]c(C(=O)N4CCCC4)c3)C2)c1 (stereo unspecified) | 765
COc1ccc(NC(=O)Nc2nccn(-c3ccc(C)c(C)c3)c2=O)cc1OC | 913
COc1ccc(N2CC(c3noc(-c4cc(F)cc(F)c4)n3)CC2=O)cc1 (stereo unspecified) | 969
CCCn1cc(C2=CCN(S(=O)(=O)Cc3ccccc3)CC2)c2cccnc21 | 1070
Cc1nc2cccnc2n1C1CCN(C(=O)Nc2ccc(F)cc2)CC1 | 640
CN1C(=O)c2cc(C(=O)NCCc3ccccc3)nn2CC1(C)C(=O)NC1CCCCC1 (stereo unspecified) | 812
CCCN(CC1CCOC1)C(=O)Nc1ccc(OCC)cc1 (stereo unspecified) | 750

Compound | RP-LC retention time [s]
COc1cc(OC)cc(C(=O)NC2CCN(Cc3c(C)noc3C)C2)c1 (stereo unspecified) | 613
Cc1noc(C)c1CN1CCN(C(=O)c2cc(F)cc(F)c2)CC1 | 563
O=C(Nc1cccc(-c2cn3cccnc3n2)c1)c1cccc(Br)c1 | 728
CCN(CC)S(=O)(=O)c1ccc2c(c1)CC(C(=O)NCCc1ccc(C)cc1)N2C(C)=O (stereo unspecified) | 842
O=C(c1ccc(-c2csc(C3CC3)n2)cc1)N1CCCCC1 | 971
COc1ccc(N2CCN(C(=O)C3CCCN(C(=O)c4cc5sccc5n4C)C3)CC2)cc1 (stereo unspecified) | 821
Cc1ccccc1-c1noc(Cn2c(=O)n(CCc3ccccc3)c(=O)c3sccc32)n1 | 1200
CC(=O)N(C)Cc1nc2ccccc2n1CC(=O)N1CCCC1 | 581
O=C(C1=NN(Cc2cccc(F)c2)c2cc(Cl)ccc2S1(=O)=O)N1CCOCC1 | 904
Cc1noc(C)c1-c1ccc(S(=O)(=O)NCc2ccc3c(c2)OCO3)cc1 | 894
CCn1cc(S(=O)(=O)NCc2ccc(F)cc2Cl)c2cccnc21 | 855
Cc1nn(CC(=O)NCC2CCCCC2)c(=O)c2nc(-c3ccccc3)sc12 | 958
CCNC(=O)c1cc(N(C)C)nc2c(Cl)cccc12 | 730
COc1ccc(CNC(=O)NCC2CCN(S(=O)(=O)C3CC3)CC2)cc1 | 662
O=C(NC1CCCCCC1)c1cccc(-c2nccnc2N2CCCC2)c1 | 1000
Cc1noc(C)c1CC(=O)N1CCCn2cc(-c3ccccc3F)nc21 | 710
CCn1cc(CN2CCC(C(=O)NCCCN3CCOCC3)CC2)c2cc(Cl)ccc21 | 585
Cc1ccc(S(=O)(=O)N2CCC3(CC2)OCCS3)s1 | 906
Cc1ccc(C)c(NC(=O)Cn2c(=O)n(-c3ccccc3)c3ncccc32)c1 | 852
O=C(NCc1cc(F)cc(F)c1)c1c(O)c2cccnc2n(-c2cccc(F)c2)c1=O | 1200
O=C1NCCCn2cc(S(=O)(=O)NCc3ccccc3Cl)cc21 | 686
CC(C(=O)NCc1ccco1)C1CCOCC1 (stereo unspecified) | 644

Compound | RP-LC retention time [s]
CN1C2CCC1[C@@H](COC(=O)c1ccccc1)[C@@H](O)C2 (stereo partly specified) | 636
COc1cccc(-c2nc(C3CCN(S(=O)(=O)c4ccc(Cl)cc4)CC3)no2)c1 | 1170
CCC(=O)N1CCOc2ccc(N(C)C)cc2C1 | 570
O=C(c1cc2ccccc2[nH]1)N1CCN(c2ccc(=O)n(-c3ccc(Cl)cc3)n2)CC1 | 918
O=C(Cn1cccc1-c1nnc(-c2ccccc2)o1)NCc1cccnc1 | 617
CN(C)C(=O)c1csc(S(=O)(=O)N2CCC(C(=O)NC3CCCCCCC3)CC2)c1 | 835
CCOc1ccc(-c2[nH]ncc2CNS(=O)(=O)c2ccc(C(F)(F)F)cc2)cc1 | 918
COc1ccc2c(c1)C1(CCN(C(=O)NCCC(C)C)C1)C(=O)N2C (stereo unspecified) | 770
O=C(c1ccc(OCC2CCCN2C(=O)C2CCCCC2)cc1)N1CCCC1 (stereo unspecified) | 888
c1cc2c3c(cccc3c1)NC1(CCC3(CC1)Nc1cccc4cccc(c14)N3)N2 | 1200
O=C(NCc1ccccc1)C1CCc2nc(N3CCN(C(=O)C4CCC4)CC3)sc2C1 (stereo unspecified) | 578
Cc1ccc(S(=O)(=O)CCc2noc(C(=O)NCCc3ccc(S(N)(=O)=O)cc3)n2)cc1 | 724
Cc1ccc2[nH]c(=O)c(CCC(=O)NCCc3ccccn3)cc2c1 | 577
O=C(CCNc1cnc2cnccn12)Nc1ccc2c(c1)OCO2 | 570
Cc1ncoc1C(=O)N1CC(c2noc(C3CCCN3CC3CC3)n2)C1 (stereo unspecified) | 559
CC(C)CCNC(=O)Nc1ccc2c(c1)CCN2S(C)(=O)=O | 784
NC(=O)C1CCN(C(=O)Cc2csc(NC(=O)Nc3ccccc3)n2)CC1 | 622
O=C(NCc1ccc(F)cc1)N1CCC(OC2CCN(Cc3ccccc3)CC2)CC1 | 658
CSc1cccc(N2C(=O)C3N=NN(Cc4nc(-c5ccc(C)c(C)c5)no4)C3C2=O)c1 (stereo unspecified) | 1100
Cc1ccc(-c2nc(C)c3c(n2)N(Cc2ccccn2)C(=O)CC3)cc1 | 771
Cc1cccc(NC(=O)N2CCN(c3cnn4c(C5CC5)nnc4c3)CC2)c1 | 647
COc1ccc(-c2ccc(=O)n(Cc3nc(-c4ccccc4OC)no3)n2)cc1 | 891

Reference: the METLIN SMRT retention time set (Domingo-Almenara et al. 2019)
